Assay results published in PubChem BioAssay AID248 (DTP/NCI, 2004).
Toxic doses and inconclusive results are not listed.

Test system: L1210 leukemia ip in BDF1 mice, survival T/C
Assay: NCI In Vivo Anticancer Drug Screen. Data for tumor model L1210 Leukemia (intraperitoneal) in B6D2F1 (BDF1) mice
Conditions: endpoint: mean survival time, higher = longer survival
In short: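 Tumor was transplanted into mice, which were then dosed with test compound or vehicle alone. Survival was recorded for each group, and the treated figure was expressed relative to the control figure.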

[1] = dose: 100.0 mg/kg/injection, schedule: Q04DX003 (ip), vehicle: Klucel (hydroxypropylcellulose) (HPC)
[2] = dose: 200.0 mg/kg/injection, schedule: Q04DX003 (ip), vehicle: Klucel (hydroxypropylcellulose) (HPC)
[3] = dose: 100.0 mg/kg/injection, schedule: Q04DX003 (ip), vehicle: saline with Tween-80
[4] = dose: 200.0 mg/kg/injection, schedule: Q04DX003 (ip), vehicle: saline with Tween-80
[5] = dose: 400.0 mg/kg/injection, schedule: Q04DX003 (ip), vehicle: saline with Tween-80

O=c1c(O)c(-c2ccc(-c3oc4ccccc4c(=O)c3O)cc2)oc2ccccc12
T/C (dose: 50.0 mg/kg/injection, schedule: Q01DX001 (ip), vehicle: saline): 97 % of control | T/C (dose: 100.0 mg/kg/injection, schedule: Q01DX001 (ip), vehicle: saline): 89 % of control | T/C (dose: 200.0 mg/kg/injection, schedule: Q01DX001 (ip), vehicle: saline): 91 % of control | T/C (dose: 400.0 mg/kg/injection, schedule: Q01DX001 (ip), vehicle: saline): 101 % of control

O=C(CCc1ccc(C(=O)Nc2ccc(C3=NCCCN3)cc2)cc1)Nc1ccc(C2=NCCCN2)cc1
T/C (dose: 0.37 mg/kg/injection, schedule: Q01DX Z (ip), vehicle: water): 98 % of control | T/C (dose: 0.75 mg/kg/injection, schedule: Q01DX Z (ip), vehicle: water): 108 % of control | T/C (dose: 1.0 mg/kg/injection, schedule: Q01DX Z (ip), vehicle: water): 121 % of control | T/C (dose: 4.0 mg/kg/injection, schedule: Q01DX Z (ip), vehicle: water): 232 % of control | T/C (dose: 8.0 mg/kg/injection, schedule: Q01DX Z (ip), vehicle: water): 270 % of control | T/C (dose: 25.0 mg/kg/injection, schedule: Q01DX Z (oral), vehicle: water): 102 % of control | T/C (dose: 50.0 mg/kg/injection, schedule: Q01DX Z (oral), vehicle: water): 93 % of control | T/C (dose: 100.0 mg/kg/injection, schedule: Q01DX Z (oral), vehicle: water): 93 % of control | T/C (dose: 200.0 mg/kg/injection, schedule: Q01DX Z (oral), vehicle: water): 102 % of control

CCOc1ccc(NC(=O)Nc2cccc(Cl)c2)cc1
T/C (dose: 100.0 mg/kg/injection, schedule: Q01DX009 (ip), vehicle: Klucel (hydroxypropylcellulose) (HPC)): 103 % of control | T/C [1]: 95 % of control | T/C [2]: 103 % of control | T/C (dose: 400.0 mg/kg/injection, schedule: Q01DX009 (ip), vehicle: Klucel (hydroxypropylcellulose) (HPC)): 87 % of control | T/C (dose: 400.0 mg/kg/injection, schedule: Q04DX003 (ip), vehicle: Klucel (hydroxypropylcellulose) (HPC)): 100 % of control

CC(C)(C)C1COP(=S)(C(C)(C)C)OC1 (stereo unspecified)
T/C [1]: 102 % of control | T/C [2]: 93 % of control

CN=C(N)c1ccc(NC(=O)/C=C\c2ccc(C(=O)Nc3ccc(C(N)=NC)cc3)cc2)cc1
T/C (dose: 1.88 mg/kg/injection, schedule: Q01DX Z (ip), vehicle: saline): 112 % of control | T/C (dose: 3.75 mg/kg/injection, schedule: Q01DX Z (ip), vehicle: saline): 119 % of control | T/C (dose: 7.5 mg/kg/injection, schedule: Q01DX Z (ip), vehicle: saline): 122 % of control | T/C (dose: 60.0 mg/kg/injection, schedule: Q01DX Z (ip), vehicle: saline): 233 % of control | T/C (dose: 120.0 mg/kg/injection, schedule: Q01DX Z (ip), vehicle: saline): 206 % of control | T/C (dose: 480.0 mg/kg/injection, schedule: Q01DX Z (ip), vehicle: saline): 96 % of control

O=C(Nc1cc([N+](=O)[O-])ccc1F)Oc1ccc(OCc2ccccc2)cc1
T/C (dose: 100.0 mg/kg/injection, schedule: Q04DX002 (ip), vehicle: Klucel (hydroxypropylcellulose) (HPC)): 103 % of control | T/C (dose: 200.0 mg/kg/injection, schedule: Q04DX002 (ip), vehicle: Klucel (hydroxypropylcellulose) (HPC)): 89 % of control | T/C (dose: 400.0 mg/kg/injection, schedule: Q04DX002 (ip), vehicle: Klucel (hydroxypropylcellulose) (HPC)): 106 % of control

Cl[C](Cl)(Cl)[Hg][c]1ccccc1
T/C (dose: 3.0 mg/kg/injection, schedule: Q01DX009 (ip), vehicle: Klucel (hydroxypropylcellulose) (HPC)): 88 % of control | T/C (dose: 6.0 mg/kg/injection, schedule: Q01DX009 (ip), vehicle: Klucel (hydroxypropylcellulose) (HPC)): 92 % of control | T/C (dose: 12.0 mg/kg/injection, schedule: Q01DX009 (ip), vehicle: Klucel (hydroxypropylcellulose) (HPC)): 90 % of control | T/C (dose: 12.5 mg/kg/injection, schedule: Q01DX009 (ip), vehicle: Klucel (hydroxypropylcellulose) (HPC)): 110 % of control

Cc1ccc(N=Nc2c(C)nc(N)nc2C)cc1
T/C (dose: 75.0 mg/kg/injection, schedule: Q01DX001 (ip), vehicle: saline): 97 % of control | T/C (dose: 150.0 mg/kg/injection, schedule: Q01DX001 (ip), vehicle: saline): 91 % of control

O=[N+]([O-])c1ccc(NCCO)c([N+](=O)[O-])c1
T/C (dose: 100.0 mg/kg/injection, schedule: Q01DX009 (ip), vehicle: saline with Tween-80): 98 % of control | T/C [3]: 88 % of control | T/C (dose: 200.0 mg/kg/injection, schedule: Q01DX009 (ip), vehicle: saline with Tween-80): 106 % of control | T/C [4]: 97 % of control | T/C [5]: 88 % of control

COC(OC)c1nc(N)nc(N)c1-c1ccc(F)cc1
T/C [3]: 94 % of control | T/C [4]: 96 % of control | T/C [5]: 96 % of control

CC(=O)OC1C(C2CSC(=O)O2)OC2OC(C)(C)OC21 (stereo unspecified)
T/C (dose: 25.0 mg/kg/injection, schedule: Q04DX002 (ip), vehicle: saline): 89 % of control | T/C (dose: 50.0 mg/kg/injection, schedule: Q04DX002 (ip), vehicle: saline): 103 % of control | T/C (dose: 100.0 mg/kg/injection, schedule: Q04DX002 (ip), vehicle: saline): 92 % of control
